Test results reported in patent US20180310552A1, “Composition comprising a safener, a fungicide and metalaxyl” (priority 2015, published 2018).

Tests used:
[1] = test system: Fusarium culmorum; test: Fusarium culmorum (wheat)/seed treatment, greenhouse, 7 days at 20° C.; format: in vivo; details: seed treatment
Source text: (§1) According to another aspect of the present invention, in the composition according to the invention, the compound ratio A/B, A/C or A/B/C may be advantageously chosen so as to produce a synergistic effect. A synergistic effect of fungicides is always present when the fungicidal activity of the active compound combinations exceeds the total of the activities of the active compounds when applied individually. The expected activity for a given combination of two or three active compounds can be calculated as follows (cf. Colby, S. R., “Calculating Synergistic and Antagonistic Responses of Herbicide Combinations”, Weeds 1967, 15, 20-22).
(§2) wherein • X denotes the efficacy when using active compound A at an application rate of m ppm (or g/ha), • Y denotes the efficacy when using active compound B (or C) at an application rate of n ppm (or g/ha), • Z denotes the efficacy when using active compound C at an application rate of r ppm (or g/ha), • E1 denotes the efficacy when using active compounds A and B at application rates of m and n ppm (or g/ha), and • E2 denotes the efficacy when using active compounds A and B and C at application rates of m and n and r ppm (or g/ha),
(§3) Here, the efficacy is determined in %. 0% means an efficacy which corresponds to that of the control, whereas an efficacy of 100% means that no infection is observed.
(§4) If the actual fungicidal action exceeds the calculated value, the action of the combination is superadditive, i.e. a synergistic effect is present. In this case, the actually observed efficacy must exceed the value calculated using the above formula for the expected efficacy (E1 or E2).
(§5) The test is performed under greenhouse conditions.
(§6) Active compounds solved in N-methyl-2-pyrrolidon, or combinations thereof were diluted with water to the desired dosages. Wheat seeds were treated with these preparations and sown in 7×7 cm pots filled with 1:1 mix of steamed field soil and sand, mixed with a wheat grain culture of Fusarium culmorum.
Pots were incubated in the greenhouse for 7 days at 20° C. […]

[2] = test system: Fusarium culmorum; test: Fusarium culmorum (wheat)/seed treatment, greenhouse, 7 days at 15° C. (Example 5); format: in vivo; details: seed treatment
Source text: as §1, §2, §3, §4, §5
as §6, with “Commercially available disease control agents, active” for “Active”, “6*6” for “7×7”, “containing 4 cm of a” for “filled with”
Pots were incubated in the greenhouse for 7 days at 15° C.
Assessment consisted of counting of emerged seedlings and diseased plants. 0% means an efficacy which corresponds to that of the untreated control (infection rate was 73%), while an efficacy of 100% means that all seedlings have emerged and are healthy.

CCOC(=O)C1=NN(c2ccc(Cl)cc2Cl)C(C)(C(=O)OCC)C1 (racemic) [Mefenpyr-diethyl, diethyl (RS)-1-(2,4-dichlorophenyl)-5-methyl-2-pyrazoline-3,5-dicarboxylate]
Efficacy in % ([1]; 60 g a.i./dt): 9%
Efficacy in % ([2]; 25 g a.i./kg seed): 9%
Efficacy in % ([2]; 50 g a.i./kg seed): 0%

COCC(=O)N(c1c(C)cccc1C)C(C)C(=O)OC (racemic) [Metalaxyl, methylN-(2,6-dimethylphenyl)-N-(methoxyacetyl)-DL-alaninate]
Efficacy in % ([1]; 6 g a.i./dt): 0%
Efficacy in % ([2]; 2 g a.i./kg seed): 18%

OC(Cc1ccccc1Cl)(Cn1[nH]cnc1=S)C1(Cl)CC1 (stereo not shown) [Prothioconazole, 2-[2-(1-chlorocyclopropyl)-3-(2-chlorophenyl)-2-hydroxypropyl]-1,2-dihydro-3H-1,2,4-triazole-3-thione]
Efficacy in % ([1]; 16 g a.i./dt): 45%
Efficacy in % ([2]; 15 g a.i./kg seed): 64%
